What all share (type): in vivo
Data set [1] concerns Drosophila melanogaster. Briefly: One-choice (single-trap) olfactory trap assay. As to conditions: for repellency compared with DEET, one-choice trap assay: 25 μl of 25% by weight in DMSO on filter paper, 10% ACV attractant, 6 hours (FIG. 10) and 24 hours (FIG. 13); for fly death during the 6-hour screen: starved flies. The procedure: (§1) The D. melanogaster assays served as a model for SWD repellency. Forty different aromatic amides were studied at a 25% concentration by weight in DMSO, and the fruit fly chemosensory behaviors in response thereto were characterized. […]
(§2) Flies were monitored throughout their life cycle. Five-day-old flies (10 male and 10 females) were selected per assay, and starved for a predetermined length of time (e.g., 20 hours). After starvation, two different assays were used to study the olfactory related responses.
FIG. 7A is a diagram of a single-trap olfactory assay. Flies 105 were placed in a cylindrical chamber 100 containing a trap 110. The trap 110 was fashioned from an upturned 1.5 ml micro-centrifuge tube where the tapered end was trimmed away. A pipette tip 120 was cut to form a funnel and inserted into the bottom of the inverted micro-centrifuge tube 110. Then, filter paper 130 was placed between the pipette tip 120 and tip of micro-centrifuge tube 110. The pipette tip 120 was placed so that entering flies could not make physical contact with the filter paper 130. The filter paper 130 was placed in this manner so that when the filter paper 130 was treated with the repellent solution, the flies would only be able to smell at a distance and should be repelled even in the presence of an attractant.
A 25 μl sample of test compound at 25% concentration was applied to the filter paper 130 in order to provide the odor source. At the bottom of the trap 110, 125 μl of 10% apple cider vinegar (ACV) was placed as an attractant. Trials were conducted for 24 hours to visualize the number of flies 105 entering the trap 110. Typically, flies that entered the trap 110 contacted the liquid ACV and died in the ACV. Flies were counted and recorded at 4, 6, and 24 hours. No control other than DEET was used for this experiment, because it was a single trap, comparing the number of flies 105 repelled by the repellent versus the number of flies 105 interacting with the attractant (ACV).
(§3) The different assays assigned results as follows. For the single-choice olfactory assay, the numbers of flies were counted according to (1) those that entered the trap, (2) those that stayed outside the trap and lived, and (3) those that died outside the trap. For the two-choice olfactory assay, the numbers of flies were counted according to (1) those that entered the control trap, (2) those that entered the trap containing the repellent, (3) those that stayed outside of both traps and lived, and (4) those that died outside the traps. For the gustatory assay, the numbers of flies were counted according to those that had (1) a red-colored abdomen, (2) a blue-colored abdomen, (3) a purple abdomen, and (4) no added color to their abdomen. A nonparametric Mann-Whitney U test was used to compare the statistical differences between assays using DEET and the same assays using one of the present repellents for all trials.

The subject of data set [2] is Drosophila melanogaster. In words: Two-choice trap olfactory assay. As to conditions: for interaction with control trap in comparison with repellent-treated trap: low participation; for trap preference (control trap versus repellent-treated trap): DMSO control vs 25 μl of 25% by weight in DMSO. How it is done: as §1, §2
FIG. 7B is a diagram of a 2-choice trap olfactory assay. Two ACV traps 110a-b were prepared as above, in a cylinder 150 from upturned 1.5 ml micro-centrifuge tubes with the tapered end trimmed away, and a pipette 120a-b inserted into the inverted micro-centrifuge tube. In the cylinder 150, one trap 110a was treated with 25 μl of DMSO (as a control) on the filter paper 135, and the other trap 110b with the 25 μl of the 25% by weight solution of the test compound in DMSO applied to the filter paper 130. 125 μl of 10% ACV, diluted with water, was placed in the bottom of the traps 110a-b. Both traps contained filter paper as prepared in the one-trap assay. All trials were screened for 24 hours, and the number of flies 105 in each trap was counted. Positions of the traps (i.e., left or right, relative to the location of the chamber 150 in the room) were randomized. The number of flies 105 in each trap 110a and 110b were counted and recorded at 4, 6 and 24 hours.
as §3

Data set [3] deals with Drosophila melanogaster. Briefly: Gustatory assay (fructose preference, food colouring). As to conditions: 1 hour feeding; for gustatory repellency (preference for repellent-treated sugar versus control-treated sugar): 35 mM fructose with 5 mM repellent vs 25 mM fructose control. The procedure: The D. melanogaster assays served as a model for SWD repellency. Forty different aromatic amides were studied at a 25% concentration by weight in DMSO, and the fruit fly chemosensory behaviors in response thereto were characterized.
In the gustatory assay, the consumption of sugar (from a solution in a gel) treated at varying concentrations of the present repellent compounds was compared to the consumption of control-treated sugar. For the habituation assay, flies were tested over repeated exposures to the present repellent compounds to measure changes in behavioral preference for the compounds.
Flies were continuously monitored throughout their lifecycle. In doing so, 3- to 5-day-old flies (half male and half female) were selected and starved for 20 hours. Flies were then introduced to 96-well plates 200 with wells 210a-220vv that were alternately filled with two different sugar solutions, as shown in FIG. 8. Wells 210a-210vv were filled with 25 mM fructose in DMSO (as a control), colored with red food coloring, and wells 220a-220vv were filled with […] fructose mixed with 5 mM of the present insect repellent in DMSO, colored with blue food coloring. The food coloring is nontoxic, so it has no effect on preference. Using an established protocol (Montell, C., et al., Avoiding DEET through insect gustatory receptors. NIH Neuron 67(4), 2010, 555-561: doi:10.1016/j.neuron.2010.07.006), flies selected between the fructose control or fructose mixed with aromatic amide repellent. Tests were performed on at least one group of about 50 males and at least one group of 50 females. Flies were placed in the dark for 1 hour, then the food coloring in the fly's abdomen was visualized under a compound microscope. The color of the abdomen was noted, along with the intensity, providing a quantitative idea of how much sugar each fly consumed, and from which type of well (control vs. mixed with repellent). The flies were fed for one hour so that the amount of food coloring was significant enough to be visible. A preference index was made to define the amount of food coloring consumed and assess the degree of repellent avoidance via gustatory processes.
as §3

[4] abbreviates: one-choice trap, 25% concentration.
[5] abbreviates: one-choice trap, 25% concentration, 6 hours.

“Also recorded” adds a separate entry of the source.

For `Cc1cccc(C(=O)N2CCCCC2)c1` [Compound 1mC], in the data set with Drosophila melanogaster [1], the “repellency compared with DEET, one-choice trap assay” value is listed as “more effective than DEET”. Besides, in the data set on Drosophila melanogaster [1] (setting [4]), the “aversion (no flies entering the single-choice trap)” value came out at 100% and the “ranking among repellents in the one-choice assay” value is reported as “most effective repellents”. Moreover, in the data set on Drosophila melanogaster [1] (setting [5]), the repellency result is “significant repellency” and the “fly death during the 6-hour screen” value is “no fly death”. In the data set with Drosophila melanogaster [2] (25% by weight, 20 flies per assay, 6 hours), the “average number of flies that chose a trap in 6 hours” value was 1 flies. Also, in the data set with Drosophila melanogaster [2] (25% by weight, 6 hours), the “participation in choosing either trap” value is on record as “less overall participation”. Further, in the data set on Drosophila melanogaster [2] (25% by weight), the “interaction with control trap in comparison with repellent-treated trap” value (“interaction with control trap” below) is reported as “more flies interacted with the control trap”. Moreover, in the data set with Drosophila melanogaster [2] (6 hours), the “trap preference (control trap versus repellent-treated trap)” value is on record as “preference for the control trap”.

As for `Cc1cccc(C(=O)N2CCOCC2)c1` [Compound 1mD], the “gustatory repellency (preference for repellent-treated sugar versus control-treated sugar)” value with Drosophila melanogaster [3] was “act as a gustatory repellent”.

Consider `Cc1cccc(C(=O)N2CCN(C)CC2)c1` [Compound 1mE, 1-methyl-4-(3-methylbenzoyl)piperazine], for which the “repellency compared with DEET, one-choice trap assay” value in the data set with Drosophila melanogaster [1] is reported as “more effective than DEET”. In the data set on Drosophila melanogaster [1] (setting [5]), the “fly death during the 6-hour screen” value was “some fly death”.

As for `Cc1ccccc1C(=O)N1CCOCC1` [Compound 1oD], the “repellency compared with DEET, one-choice trap assay” value in the data set on Drosophila melanogaster [1] was “more effective than DEET”. For the same compound, the “fly death during the 6-hour screen” value in the data set on Drosophila melanogaster [1] (setting [5]) is given as “some fly death”. Further, in the data set with Drosophila melanogaster [2] (25% by weight, 6 hours), the “participation in choosing either trap” value is on record as “less overall participation”. Besides, the “trap preference (control trap versus repellent-treated trap)” value in the data set with Drosophila melanogaster [2] (6 hours) is reported as “preference for the control trap”.

With `Cc1ccccc1C(=O)N1CCN(C)CC1` [Compound 1oE], the “participation in choosing either trap” value in the data set on Drosophila melanogaster [2] (25% by weight, 6 hours) was “less overall participation”. In addition, the “interaction with control trap” value in the data set on Drosophila melanogaster [2] (25% by weight) is “more flies interacted with the control trap”. Also, the “trap preference (control trap versus repellent-treated trap)” value with Drosophila melanogaster [2] (6 hours) is recorded as “preference for the control trap”.

`O=C(c1cccc(F)c1)N1CCCCC1` [Compound 2mC]: the “repellency compared with DEET, one-choice trap assay” value with Drosophila melanogaster [1] was “more effective than DEET”.

Turning to `O=C(c1ccccc1F)N1CCCC1` [Compound 2oB], the “participation in choosing either trap” value with Drosophila melanogaster [2] (25% by weight, 6 hours) is given as “less overall participation”. The “interaction with control trap” value in the data set on Drosophila melanogaster [2] (25% by weight) was “more flies interacted with the control trap”. In addition, in the data set with Drosophila melanogaster [2] (6 hours), the “trap preference (control trap versus repellent-treated trap)” value was “preference for the control trap”.

For the compound `O=C(c1ccccc1F)N1CCCCC1` [Compound 2oC], the “repellency compared with DEET, one-choice trap assay” value in the data set on Drosophila melanogaster [1] was “more effective than DEET”. In the data set on Drosophila melanogaster [1] (setting [5]), the repellency result is listed as “significant repellency” and the “fly death during the 6-hour screen” value is listed as “no fly death”.

On to `O=C(c1ccccc1F)N1CCOCC1` [Compound 2oD], for which, in the data set with Drosophila melanogaster [1], the “repellency compared with DEET, one-choice trap assay” value is listed as “more effective than DEET”.

On to `O=C(c1cccc(C(F)(F)F)c1)N1CCCC1` [Compound 3mB], for which the “repellency compared with DEET, one-choice trap assay” value in the data set on Drosophila melanogaster [1] is recorded as “more effective than DEET”. Besides, in the data set with Drosophila melanogaster [1] (setting [5]), the repellency entry is “significant repellency” and the “fly death during the 6-hour screen” value is reported as “no fly death”. Moreover, the “participation in choosing either trap” value in the data set on Drosophila melanogaster [2] (25% by weight, 6 hours) is recorded as “less overall participation”. Also, the “trap preference (control trap versus repellent-treated trap)” value with Drosophila melanogaster [2] (6 hours) is on record as “preference for the control trap”.

For the compound `O=C(c1cccc(C(F)(F)F)c1)N1CCOCC1` [Compound 3mD], the “repellency compared with DEET, one-choice trap assay” value in the data set on Drosophila melanogaster [1] was “more effective than DEET”. Also, the “fly death during the 6-hour screen” value with Drosophila melanogaster [1] (setting [5]) is “some fly death”.

`O=C(c1ccccc1C(F)(F)F)N1CCCC1` [Compound 3oB]: the “repellency compared with DEET, one-choice trap assay” value in the data set on Drosophila melanogaster [1] is given as “more effective than DEET”.

With `CN1CCN(C(=O)c2ccccc2C(F)(F)F)CC1` [Compound 3oE], in the data set on Drosophila melanogaster [1], the “repellency compared with DEET, one-choice trap assay” value was “more effective than DEET”.

In the case of `O=C(c1cccc([N+](=O)[O-])c1)N1CCCCC1` [Compound 4mC], the “repellency compared with DEET, one-choice trap assay” value with Drosophila melanogaster [1] is reported as “more effective than DEET; also recorded: significantly better than DEET”. Also, the “average number of flies that entered the trap” value in the data set on Drosophila melanogaster [1] (one-choice trap, 25% concentration, 20 flies per assay, 6 hours) is recorded as 5 flies. Further, the fly mortality entry with Drosophila melanogaster [1] (one-choice trap, 25% concentration, exposure in the gas phase) is “high mortality”. The “fly death during the 6-hour screen” value in the data set on Drosophila melanogaster [1] (setting [5]) is reported as “all the flies were dead”.

With `O=C(c1cccc([N+](=O)[O-])c1)N1CCOCC1` [Compound 4mD], the “gustatory repellency (preference for repellent-treated sugar versus control-treated sugar)” value in the data set on Drosophila melanogaster [3] is reported as “act as a gustatory repellent”.

On to `CN1CCN(C(=O)c2ccccc2[N+](=O)[O-])CC1` [Compound 4oE], for which the “repellency compared with DEET, one-choice trap assay” value in the data set on Drosophila melanogaster [1] is on record as “more effective than DEET”. Also, the “fly death during the 6-hour screen” value in the data set with Drosophila melanogaster [1] (setting [5]) is “some fly death”.

Consider `COc1cccc(C(=O)N2CCCC2)c1` [Compound 5mB], for which, in the data set on Drosophila melanogaster [3] (5 mM repellent, FIG. 12), the “gustatory repellency compared with DEET” value is reported as “worse than DEET”. In addition, the “gustatory repellency (preference for repellent-treated sugar versus control-treated sugar)” value in the data set with Drosophila melanogaster [3] is reported as “act as a gustatory repellent; also recorded: slightly lower preference”. Moreover, the “participation in choosing either trap” value in the data set on Drosophila melanogaster [2] (25% by weight, 6 hours) is listed as “much higher mean participation”. Besides, the “trap preference (control trap versus repellent-treated trap)” value with Drosophila melanogaster [2] (6 hours) was “significantly greater preference for the control trap”.

As for `COc1cccc(C(=O)N2CCCCC2)c1` [Compound 5mC], the “repellency compared with DEET, one-choice trap assay” value in the data set on Drosophila melanogaster [1] is listed as “more effective than DEET”. Besides, the “gustatory repellency (preference for repellent-treated sugar versus control-treated sugar)” value in the data set on Drosophila melanogaster [3] is reported as “act as a gustatory repellent”.

For `COc1cccc(C(=O)N2CCN(C)CC2)c1` [Compound 5mE], in the data set on Drosophila melanogaster [2] (25% by weight, 6 hours), the “participation in choosing either trap” value is “less overall participation”. In addition, the “trap preference (control trap versus repellent-treated trap)” value in the data set with Drosophila melanogaster [2] (6 hours) is given as “preference for the control trap”.

Turning to `COc1ccccc1C(=O)N1CCCCC1` [Compound 5oC], the “repellency compared with DEET, one-choice trap assay” value in the data set with Drosophila melanogaster [1] is reported as “more effective than DEET”.

As to `Nc1cccc(C(=O)N2CCCC2)c1` [Compound 6mB], the “participation in choosing either trap” value in the data set with Drosophila melanogaster [2] (25% by weight, 6 hours) is reported as “higher mean participation”. In the data set with Drosophila melanogaster [2] (6 hours), the “trap preference (control trap versus repellent-treated trap)” value is reported as “preferred the control trap”.

As for `CN1CCN(C(=O)c2cccc(N)c2)CC1` [Compound 6mE], in the data set on Drosophila melanogaster [1], the “repellency compared with DEET, one-choice trap assay” value is “more effective than DEET”.

In the case of `Nc1ccccc1C(=O)N1CCCCC1` [Compound 6oC], the “repellency compared with DEET, one-choice trap assay” value in the data set on Drosophila melanogaster [1] is reported as “more effective than DEET”.
